Experiments:
[1] = tested on: test microbes; experiment: Dow Corning Test Method 0923 Dynamic Shake Flask Test (ASTM E-2149-01), Table I; format: cell-based; conditions: shingle, vs untreated controls
Experimental: (§1) The BPB test is a standardized test known as the Bromphenol Blue Extraction Method having a Dow Corning Corporate test number 0824, except that the test was modified in the following manner. The chlorinated solvent has been eliminated and the wavelength is 595 nm. Further, the Dow Corning® Q25211 has been substituted for the Triton RTM.X100 wetting agent of the test. What is measured is the diminution of the BPB absorbance at 595 nm relative to the BPB standard solution and it is reported in percent extraction. Antimicrobial efficacy was determined using the Dow Corning Test Method 0923 Dynamic Shake Flask Test (ASTM E-2149-01) unless otherwise stated.
Application technologies were compared for a shingle substrate at constant add levels and room temperature conditions. Samples were prepared as follows and compared. The Samples included: antimicrobial agent (AA) by itself (Sample 1) and the (AA) in 0.1M Na2C2O4 (Sample 2) with a polyoxyethylene nonylphenol (the surfactant). Sample 1 treated with Methyl Siliconate is Sample 3, Sample 1 treated with sodium silicate is Sample 4 and sample 1 treated with Everwood is Sample 5. The Samples were handled as in example 1 and tested.

[2] = tested on: E. Coli; experiment: Dynamic Shake Flask Test, % E. Coli reduction; format: cell-based; conditions: Example 4, AA 1.25 mg/inch^2, vs untreated control substrates
Experimental: as §1
Studies were carried out to determine if this invention was applicable to various substrates in the building products area, such as Oriented Strand Board (OSB), vinyl siding, polymer wood composite decking and dimensional lumber. The application process was: samples were cut to 2 inches by 2 inches and weighed prior to application. A hand pump mist sprayer was used to treat the substrate. The applications of the silicate/siliconate and (AA) were kept to a minimum of less than 3 seconds application timne. Treated samples were next rinsed with copious cold water to remove any excess treatment material. There was no heating or other curing or drying of the samples.

[3] = Reaction of hydrolyzed silanes with treatment enhancers, solution appearance; format: physicochemical

CCCCCCCCCCCCCCCCCC[N+](C)(C)CCC[Si](OC)(OC)OC.[Cl-] [Sample 1, N,N-dimethyl-N-Octadecyl-3-(trimethoxysilyl)propanaminium chloride]
% Reduction ([1]; AA Actives 0.50%): 0% | % Reduction ([1]; AA Actives 1%): 0% | OSB % Red. ext. (% E. Coli Reduction) ([2]; OSB): 31% | decking % Red. ext. (% E. Coli Reduction) ([2]; decking): 0% | shingle % Red. ext. (% E. Coli Reduction) ([2]; shingle): 11% | siding % Red. ext. (% E. Coli Reduction) ([2]; siding): 0% | wood % Red. ext. (% E. Coli Reduction) ([2]; wood): 21%

CCO[Si](CC(C)C)(OCC)OCC [Sample Z-6043, i-butyltriethoxysilane]
Appearance (at Time Min.) [3]: clear | Appearance (at Time hours) [3]: clear

potassium methyl siliconate [DC-777]
appearance on standing ([3]; treatment enhancer alone, 1.5% actives level, after 4 days of standing): white precipitate

Source: US20060068118A1, “Silicon-containing treatments for solid substrates” (priority 2003, published 2006)
